Tests used:
[1] = in vitro; conditions: human
[2] = tested on: rLUJV/ZsG; assay: microbe, parasite or virus in culture; assay type: cell-based, Lujo virus; conditions: Mammarenavirus lujoense, Huh-7, read-out: Relative ZsG (%) Mean; for activity at 0.05 µM: 50 nM; for activity at 0.5 µM: 500 nM; for activity at 5 µM: 5000 nM

Molecule `Nc1nc(Cl)nc2c1ncn2[C@@H]1O[C@H](CO)[C@@H](O)[C@H]1O` [2-chloroadenosine] has a viability at 0.05 µM [1] of 98%, a viability at 0.5 µM [1] of 105% and a viability at 5 µM [1] of 103%. The activity at 0.05 µM [2] was 124%, the activity at 0.5 µM [2] was 133% and the activity at 5 µM [2] was 99%.
Work on `C[C@@]1(O)[C@H](O)[C@@H](CO)O[C@H]1n1ccc(N)nc1=O` [2ʹ-C-methylcytidine] yielded a viability at 0.05 µM [1] of 102%, a viability at 0.5 µM [1] of 104% and a viability at 5 µM [1] of 99%. The activity at 0.05 µM [2] was 124%, the activity at 0.5 µM [2] was 144% and the activity at 5 µM [2] was 103%.
`C[C@@]1(O)[C@H](O)[C@@H](CO)O[C@H]1n1ccc(=O)[nH]c1=O` [2ʹ-C-methyluridine] showed a viability at 0.05 µM [1] of 102%, a viability at 0.5 µM [1] of 100% and a viability at 5 µM [1] of 97%. For the same molecule, the activity at 0.05 µM [2] was 132%, the activity at 0.5 µM [2] was 142% and the activity at 5 µM [2] was 126%.
`CO[C@@H]1[C@H](O)[C@@H](CO)O[C@H]1n1ccc(N)nc1=O` [2ʹ-O-methylcytidine] gave a viability at 0.05 µM [1] of 98%, a viability at 0.5 µM [1] of 103% and a viability at 5 µM [1] of 100%. The activity at 0.05 µM [2] was 118%, the activity at 0.5 µM [2] was 127% and the activity at 5 µM [2] was 114%.
Molecule `CO[C@@H]1[C@H](O)[C@@H](CO)O[C@H]1n1ccc(=O)[nH]c1=O` [2ʹ-O-methyluridine] has a viability at 0.05 µM [1] of 97%, a viability at 0.5 µM [1] of 100% and a viability at 5 µM [1] of 96%. It also gave an activity at 0.05 µM [2] of 122%, an activity at 0.5 µM [2] of 130% and an activity at 5 µM [2] of 110%.
`O=C1C=CN([C@@H]2O[C@H](CO)[C@@H](O)[C@H]2O)C(=O)C1` [3-deazauridine] gave a viability at 0.05 µM [1] of 103%, a viability at 0.5 µM [1] of 96% and a viability at 5 µM [1] of 99%. It also gave an activity at 0.05 µM [2] of 108%, an activity at 0.5 µM [2] of 105% and an activity at 5 µM [2] of 111%.
`Nc1ncn([C@@H]2O[C@H](CO)[C@@H](O)[C@H]2O)c(=O)n1` [5-azacytidine] showed a viability at 0.05 µM [1] of 96%, a viability at 0.5 µM [1] of 102% and a viability at 5 µM [1] of 102%. For the same molecule, the activity at 0.05 µM [2] was 90%, the activity at 0.5 µM [2] was 112% and the activity at 5 µM [2] was 104%.
With `[N-]=[N+]=Nc1cn([C@@H]2O[C@H](CO)[C@@H](O)[C@H]2O)c(=O)[nH]c1=O` [5-azidouridine] the viability at 0.05 µM [1] was 104%, the viability at 0.5 µM [1] was 100% and the viability at 5 µM [1] was 104%. For the same molecule, the activity at 0.05 µM [2] was 121%, the activity at 0.5 µM [2] was 119% and the activity at 5 µM [2] was 113%.
`O=c1[nH]c(=O)n([C@@H]2O[C@H](CO)[C@@H](O)[C@H]2O)cc1Br` [5-bromouridine] showed a viability at 0.05 µM [1] of 97%, a viability at 0.5 µM [1] of 102% and a viability at 5 µM [1] of 100%. For the same molecule, the activity at 0.05 µM [2] was 134%, the activity at 0.5 µM [2] was 131% and the activity at 5 µM [2] was 106%.
`O=c1[nH]c(=O)n([C@@H]2O[C@H](CO)[C@@H](O)[C@H]2O)cc1Cl` [5-chlorouridine] gave a viability at 0.05 µM [1] of 100%, a viability at 0.5 µM [1] of 103% and a viability at 5 µM [1] of 99%. It also gave an activity at 0.05 µM [2] of 122%, an activity at 0.5 µM [2] of 142% and an activity at 5 µM [2] of 103%.
In the case of `O=c1[nH]c(=O)n([C@@H]2O[C@H](CO)[C@@H](O)[C@H]2O)cc1F` [5-fluorouridine], the viability at 0.05 µM [1] is reported as 97%, the viability at 0.5 µM [1] is reported as 100% and the viability at 5 µM [1] is reported as 103%. It also gave an activity at 0.05 µM [2] of 94%, an activity at 0.5 µM [2] of 51% and an activity at 5 µM [2] of 19%.
In the case of `Cc1cn([C@@H]2O[C@H](CO)[C@@H](O)[C@H]2O)c(=O)nc1N` [5-methylcytidine], the viability at 0.05 µM [1] is reported as 96%, the viability at 0.5 µM [1] is reported as 97% and the viability at 5 µM [1] is reported as 98%. It also gave an activity at 0.05 µM [2] of 122%, an activity at 0.5 µM [2] of 129% and an activity at 5 µM [2] of 108%.
For `O=c1cnn([C@@H]2O[C@H](CO)[C@@H](O)[C@H]2O)c(=S)[nH]1` [6-aza-2-thiouridine], the viability at 0.05 µM [1] was 104%, the viability at 0.5 µM [1] was 96% and the viability at 5 µM [1] was 103%. For the same molecule, the activity at 0.05 µM [2] was 134%, the activity at 0.5 µM [2] was 139% and the activity at 5 µM [2] was 112%.
Molecule `O=c1cnn([C@@H]2O[C@H](CO)[C@@H](O)[C@H]2O)c(=O)[nH]1` [6-azauridine] has a viability at 0.05 µM [1] of 98%, a viability at 0.5 µM [1] of 103% and a viability at 5 µM [1] of 97%. The activity at 0.05 µM [2] was 95%, the activity at 0.5 µM [2] was 87% and the activity at 5 µM [2] was 78%.
`Nc1ncnc2c1nnn2[C@@H]1O[C@H](CO)[C@@H](O)[C@H]1O` [8-azaadenosine] showed a viability at 0.05 µM [1] of 98%, a viability at 0.5 µM [1] of 103% and a viability at 5 µM [1] of 47%. The activity at 0.05 µM [2] was 118%, the activity at 0.5 µM [2] was 121% and the activity at 5 µM [2] was 6%.
In the case of `[N-]=[N+]=Nc1nc2c(N)ncnc2n1[C@@H]1O[C@H](CO)[C@@H](O)[C@H]1O` [8-azidoadenosine], the viability at 0.05 µM [1] is reported as 104%, the viability at 0.5 µM [1] is reported as 87% and the viability at 5 µM [1] is reported as 32%. The activity at 0.05 µM [2] was 90%, the activity at 0.5 µM [2] was 72% and the activity at 5 µM [2] was 6%.
`COc1c(-c2ccc3cc(NS(C)(=O)=O)ccc3c2)cc(-n2ccc(=O)[nH]c2=O)cc1C(C)(C)C` [ABT-333] showed a viability at 0.05 µM [1] of 99%, a viability at 0.5 µM [1] of 96% and a viability at 5 µM [1] of 104%. The activity at 0.05 µM [2] was 131%, the activity at 0.5 µM [2] was 111% and the activity at 5 µM [2] was 129%.
`COc1ccc(-c2ccc3c(N4CCOC[C@@H]4C)nc(N4CCOC[C@@H]4C)nc3n2)cc1CO` [AZD8055] showed a viability at 0.05 µM [1] of 86%, a viability at 0.5 µM [1] of 52% and a viability at 5 µM [1] of 45%. It also gave an activity at 0.05 µM [2] of 48%, an activity at 0.5 µM [2] of 7% and an activity at 5 µM [2] of 3%.
Work on `CC(C)(C)C(=O)OCOP(=O)(COCCn1cnc2c(N)ncnc21)OCOC(=O)C(C)(C)C` [Adefovir dipivoxil] yielded a viability at 0.05 µM [1] of 123%, a viability at 0.5 µM [1] of 94% and a viability at 5 µM [1] of 54%. The activity at 0.05 µM [2] was 70%, the activity at 0.5 µM [2] was 38% and the activity at 5 µM [2] was 24%.
Work on `CCCCc1oc2ccccc2c1C(=O)c1cc(I)c(OCCN(CC)CC)c(I)c1` [Amiodarone] yielded a CC50 ([1]; CC50 (50% cell cytotoxicity concentration)) of 13.6 ± 1.51 µM, an activity at 0.05 µM [2] of 80% and an activity at 0.5 µM [2] of 60%. The activity at 5 µM [2] was 3%.
Work on `N#CC1(c2ccc(NC(=O)c3cccnc3NCc3ccncc3)cc2)CCCC1` [Apatinib] yielded a viability at 0.05 µM [1] of 113%, a viability at 0.5 µM [1] of 119% and a viability at 5 µM [1] of 95%. It also gave an activity at 0.05 µM [2] of 91%, an activity at 0.5 µM [2] of 67% and an activity at 5 µM [2] of 47%.
With `CCOC(=O)c1c(CSc2ccccc2)n(C)c2cc(Br)c(O)c(CN(C)C)c12` [Arbidol] the viability at 0.05 µM [1] was 135%, the viability at 0.5 µM [1] was 139% and the viability at 5 µM [1] was 109%. The activity at 0.05 µM [2] was 77%, the activity at 0.5 µM [2] was 65% and the activity at 5 µM [2] was 40%.
Molecule `O=C1CCc2ccc(OCCCCN3CCN(c4cccc(Cl)c4Cl)CC3)cc2N1` [Aripiprazole] has a viability at 0.05 µM [1] of 124%, a viability at 0.5 µM [1] of 126% and a viability at 5 µM [1] of 59%. It also gave an activity at 0.05 µM [2] of 71%, an activity at 0.5 µM [2] of 81% and an activity at 5 µM [2] of 16%.
In the case of `O=C1C(O)=C([C@H]2CC[C@H](c3ccc(Cl)cc3)CC2)C(=O)c2ccccc21` [Atovaquone], the viability at 0.05 µM [1] is reported as 129%, the viability at 0.5 µM [1] is reported as 134% and the viability at 5 µM [1] is reported as 115%. The activity at 0.05 µM [2] was 108%, the activity at 0.5 µM [2] was 90% and the activity at 5 µM [2] was 74%.
In the case of `Nc1ncnc2c([C@@H]3N[C@H](CO)[C@@H](O)[C@H]3O)c[nH]c12` [BCX-4430], the viability at 0.05 µM [1] is reported as 99%, the viability at 0.5 µM [1] is reported as 97% and the viability at 5 µM [1] is reported as 101%. For the same molecule, the activity at 0.05 µM [2] was 103%, the activity at 0.5 µM [2] was 132% and the activity at 5 µM [2] was 99%.

Source: article PMC8310135 (Viruses, 2021)
